In general, IC50 refers to the midpoint of a concentration-inhibition curve. The low end stands for greater potency in that assay, the high end for weaker potency in that assay.

The structures appear in SMILES notation.

For this test, the target named is T1, TNKS2 (Homo sapiens, UniProt Q9H2K2).
T1 sequence (Q9H2K2 1-1166): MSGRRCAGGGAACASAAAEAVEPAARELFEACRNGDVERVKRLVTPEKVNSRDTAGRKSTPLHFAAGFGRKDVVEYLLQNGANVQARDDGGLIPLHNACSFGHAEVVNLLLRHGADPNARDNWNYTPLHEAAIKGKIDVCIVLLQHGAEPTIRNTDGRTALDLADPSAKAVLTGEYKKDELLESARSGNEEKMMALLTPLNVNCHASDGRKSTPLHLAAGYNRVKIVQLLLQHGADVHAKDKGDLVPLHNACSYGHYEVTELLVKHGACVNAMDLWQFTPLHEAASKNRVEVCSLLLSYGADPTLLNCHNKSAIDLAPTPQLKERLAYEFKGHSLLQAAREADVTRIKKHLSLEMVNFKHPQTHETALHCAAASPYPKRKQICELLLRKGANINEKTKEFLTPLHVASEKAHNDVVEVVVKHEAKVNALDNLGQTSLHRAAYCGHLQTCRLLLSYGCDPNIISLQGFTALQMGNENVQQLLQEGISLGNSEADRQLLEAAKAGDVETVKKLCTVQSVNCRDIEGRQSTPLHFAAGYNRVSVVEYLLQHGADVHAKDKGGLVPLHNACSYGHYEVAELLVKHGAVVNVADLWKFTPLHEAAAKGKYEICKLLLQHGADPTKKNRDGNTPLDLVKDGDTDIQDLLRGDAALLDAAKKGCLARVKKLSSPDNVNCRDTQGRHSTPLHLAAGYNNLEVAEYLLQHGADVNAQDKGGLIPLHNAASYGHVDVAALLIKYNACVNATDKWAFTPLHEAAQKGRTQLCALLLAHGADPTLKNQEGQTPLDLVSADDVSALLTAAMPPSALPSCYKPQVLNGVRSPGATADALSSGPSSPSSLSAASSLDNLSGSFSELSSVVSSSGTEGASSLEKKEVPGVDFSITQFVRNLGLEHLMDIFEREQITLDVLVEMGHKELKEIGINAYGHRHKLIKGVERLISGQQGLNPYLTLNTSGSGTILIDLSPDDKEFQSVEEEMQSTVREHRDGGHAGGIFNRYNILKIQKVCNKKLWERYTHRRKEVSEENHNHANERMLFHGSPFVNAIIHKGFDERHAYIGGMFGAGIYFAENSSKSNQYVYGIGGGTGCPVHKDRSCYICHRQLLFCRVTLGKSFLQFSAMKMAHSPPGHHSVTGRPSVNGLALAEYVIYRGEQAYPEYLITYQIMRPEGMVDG
Put plainly: Modified TNKS2 Assay 2 (auto-parsylation, [3H]-NAD+ SPA). It is filed as biochemical. To be noted: 6 nM TNKS2, 96 well.
In turn, `CNC(=O)c1nc[nH]c1C(=O)Nc1ccc(NC(=O)c2cc(F)c(F)cc2C)cc1` [Example 377, N^5-{4-[(4,5-difluoro-2-methylbenzoyl)amino]phenyl}-N^4-methyl-1H-imidazole-4,5-dicarboxamide] had an IC50 of 330 nM.
As for `CN(C)CCNC(=O)c1nc[nH]c1C(=O)Nc1ccc(NC(=O)c2ccc(F)cc2)c(F)c1` [Example 77, N^4-[2-(dimethylamino)ethyl]-N^5-{3-fluoro-4-[(4-fluorobenzoyl)amino]phenyl}-1H-imidazole-4,5-dicarboxamide], it took 1800 nM to reach half-maximal inhibition (IC50).
Under `CCNC(=O)c1nc[nH]c1C(=O)Nc1ccc(NC(=O)c2cccc(OC)c2Cl)cc1` [Example 260, N^5-{4-[(2-chloro-3-methoxybenzoyl)amino]phenyl}-N^4-ethyl-1H-imidazole-4,5-dicarboxamide] stands 6200 nM.
Under `CC(CN1CCOCC1)NC(=O)c1[nH]cnc1C(=O)Nc1ccc(NC(=O)c2ccc(F)cc2)cc1` (centres unmarked) [Example 294, N^4-{4-[(4-fluorobenzoyl)amino]phenyl}-N^5-[1-(morpholin-4-yl)propan-2-yl]-1H-imidazole-4,5-dicarboxamide] stands 150 nM.
With `CNC(=O)c1nc[nH]c1C(=O)Nc1ccc(NC(=O)c2ccc(C#N)cc2)cc1` [Example 322, N^5-{4-[(4-cyanobenzoyl)amino]phenyl}-N^4-methyl-1H-imidazole-4,5-dicarboxamide], 950 nM corresponded to half-maximal inhibition (IC50).
Take `O=C(Nc1ccc(NC(=O)c2[nH]cnc2C(=O)NCCc2ccccc2)cc1)c1ccc(F)cc1Cl` [Example 384, N^5-{4-[(2-chloro-4-fluorobenzoyl)amino]phenyl}-N^4-(2-phenylethyl)-1H-imidazole-4,5-dicarboxamide]: the IC50 came out at 1700 nM.
On to `CNC(=O)c1nc[nH]c1C(=O)Nc1ccc(NC(=O)c2ccccc2Cl)c(F)c1` [Example 80, N^5-{4-[(2-chlorobenzoyl)amino]-3-fluorophenyl}-N^4-methyl-1H-imidazole-4,5-dicarboxamide], for which the IC50 is 700 nM.
In the case of `O=C(Nc1ccc(NC(=O)c2nc[nH]c2C(=O)NCC2CCOCC2)cc1)c1ccc(F)cc1Cl` [Example 397, N^5-{4-[(2-chloro-4-fluorobenzoyl)amino]phenyl}-N^4-(tetrahydro-2H-pyran-4-ylmethyl)-1H-imidazole-4,5-dicarboxamide], half-maximal inhibition (IC50) required 200 nM.
Turning to `CNC(=O)c1nc[nH]c1C(=O)Nc1ccc(NC(=O)c2cccc(Cl)n2)cc1` [Example 353, N^5-(4-{[(6-chloropyridin-2-yl)carbonyl]amino}phenyl)-N^4-methyl-1H-imidazole-4,5-dicarboxamide], the IC50 was > 10000 nM.
Turning to `CNC(=O)c1nc[nH]c1C(=O)Nc1ccc(NC(=O)c2ccc(F)cc2I)cc1` [Example 61, N^5-{4-[(4-fluoro-2-iodobenzoyl)amino]phenyl}-N^4-methyl-1H-imidazole-4,5-dicarboxamide], the IC50 is 60 nM.
For `O=C(Nc1ccc(NC(=O)c2[nH]cnc2C(=O)NCCc2ccncc2)cc1)c1ccc(F)cc1Cl` [Example 394, N^5-{4-[(2-chloro-4-fluorobenzoyl)amino]phenyl}-N^4-[2-(pyridin-4-yl)ethyl]-1H-imidazole-4,5-dicarboxamide] the value was 60 nM; for `Cc1cc(NC(=O)c2[nH]cnc2C(=O)NCCN2CCCCC2)ccc1NC(=O)c1ccc(F)cc1Cl` [Example 85, N^5-{4-[(2-chloro-4-fluorobenzoyl)amino]-3-methylphenyl}-N^4-[2-(piperidin-1-yl)ethyl]-1H-imidazole-4,5-dicarboxamide], 10 nM.
As for `CNC(=O)c1nc[nH]c1C(=O)Nc1ccc(NC(=O)c2ccc(Br)cc2Cl)cc1` [Example 334, N^5-{4-[(4-bromo-2-chlorobenzoyl)amino]phenyl}-N^4-methyl-1H-imidazole-4,5-dicarboxamide], 30 nM corresponded to half-maximal inhibition (IC50).
For `O=C(Nc1ccc(NC(=O)c2[nH]cnc2C(=O)NCCC2CCCC2)cc1)c1ccc(F)cc1Cl` [Example 42, N^5-{4-[(2-chloro-4-fluorobenzoyl)amino]phenyl}-N^4-(2-cyclopentylethyl)-1H-imidazole-4,5-dicarboxamide], the IC50 was > 10000 nM.

For the origin of these results see patent US9884063B2, “Amido-substituted azole compounds” (Bayer Pharma Aktiengesellschaft, priority 2014, dated 2018).
